Experimental data from the OligoGym collection.
After the bases stand the sugars from the 5' end (letter, count) and the backbone: PS all phosphorothioate, else s phosphorothioate and o phosphodiester by linkage. Methylation of C is not given here. e = 2'-O-(2-methoxyethyl) (MOE); l = locked nucleic acid (LNA); k = constrained ethyl (cEt); d = 2'-deoxy (DNA)

Assays:
SNHG14 = details: ASO, Human Neuronal Cell
APOL1 = details: ASO

**Q.** For “AGCAACATTATTAACCACC (sugars l1 d15 l3, PS)”, which target mRNA inhibition (SNHG14; 7.5 µM) is on record?
**A.** The target mRNA inhibition was 38%.

**Q.** For “AGCAACATTATTAACCACC (sugars l2 d11 l1 d3 l2, PS)”, which target mRNA inhibition (SNHG14; 7.5 µM) is on record?
**A.** The target mRNA inhibition was 48%.

**Q.** How did the target mRNA inhibition (SNHG14; 7.5 µM) turn out when “AGCAACATTATTAACCACC (sugars lddlldddddddlddldll, PS)” was run?
**A.** The target mRNA inhibition was 46%.

**Q.** How did the target mRNA inhibition (SNHG14; 7.5 µM) turn out when AGCTTTTAACCAGAGT (sugars l2 d10 l4, PS) was run?
**A.** The target mRNA inhibition was 81%.

**Q.** Which target mRNA inhibition (SNHG14; 7.5 µM) does the source give for “AGCTTTTAACCAGAGTGGC (sugars l1 d16 l2, PS)” here?
**A.** The target mRNA inhibition was 56%.

**Q.** How did the target mRNA inhibition (SNHG14; 7.5 µM) turn out when “AGCTTTTAACCAGAGTGGCA (sugars l1 d17 l2, PS)” was run?
**A.** Its target mRNA inhibition is 64%.

**Q.** What does the source list for AGTTCACTACTATTAC (sugars l3 d10 l3, PS)?
**A.** target mRNA inhibition (SNHG14; 0.2 µM): 52%; target mRNA inhibition (SNHG14; 1 µM): 63%

**Q.** Which target mRNA inhibition (SNHG14; 7.5 µM) does the source give for “AGTTCTACTATACTTTC (sugars l1 d10 l6, PS)” here?
**A.** The target mRNA inhibition was 47%.

**Q.** How did the target mRNA inhibition (SNHG14; 7.5 µM) turn out when “AGTTCTACTATACTTTC (sugars l3 d8 l2 d2 l2, PS)” was run?
**A.** The target mRNA inhibition was 12%.

**Q.** For “AGTTCTACTATACTTTCC (sugars l1 d2 l1 d12 l2, PS)”, which target mRNA inhibition (SNHG14; 7.5 µM) is on record?
**A.** The target mRNA inhibition was 43%.

**Q.** How did the target mRNA inhibition (SNHG14; 7.5 µM) turn out when “AGTTCTACTATACTTTCC (sugars l1 d13 l1 d1 l2, PS)” was run?
**A.** Its target mRNA inhibition is 47%.

**Q.** With “ATATACCCAAAGGCACCT (sugars l3 d12 l3, PS)” as the sequence, how does the target mRNA inhibition (SNHG14; 0.2 µM) read?
**A.** Its target mRNA inhibition is -13%.

**Q.** What about the target mRNA inhibition (SNHG14; 1 µM) of the same sequence?
**A.** The target mRNA inhibition was 15%.

**Q.** What about the target mRNA inhibition (SNHG14; 5 µM) of the same sequence?
**A.** The target mRNA inhibition was 21%.

**Q.** How did the target mRNA inhibition (SNHG14; 7.5 µM) turn out when “ATATTGATTCAATTCCC (sugars l2 d9 l2 d1 l3, PS)” was run?
**A.** Its target mRNA inhibition is 66%.

**Q.** How did the target mRNA inhibition (SNHG14; 7.5 µM) turn out when “ATATTGATTCAATTCCC (sugars lddlldddddddlldll, PS)” was run?
**A.** Its target mRNA inhibition is 63%.

**Q.** Which target mRNA inhibition (APOL1; A431, 2 µM) does the source give for “TGTTCTAACTCTTGGG (sugars k3 d4 k3 e1 d5, PS)” here?
**A.** Its target mRNA inhibition is 89%.

**Q.** With “TGTTCTAACTCTTGGG (sugars kkkddddkekeddddd, PS)” as the sequence, how does the target mRNA inhibition (APOL1; A431, 2 µM) read?
**A.** The target mRNA inhibition was 88%.

**Q.** Which target mRNA inhibition (APOL1; A431, 2 µM) does the source give for “TTATACCAGTGTCTTC (sugars kddddkekekeddddd, PS)” here?
**A.** Its target mRNA inhibition is 82%.

**Q.** How did the target mRNA inhibition (APOL1; A431, 0.0156 µM) turn out when “TTATATTTGATCCTCA (sugars k2 d4 e4 k2 d4, PS)” was run?
**A.** Its target mRNA inhibition is 0%.

**Q.** What about the target mRNA inhibition (APOL1; A431, 0.0625 µM) of the same sequence?
**A.** Its target mRNA inhibition is 30%.

**Q.** What about the target mRNA inhibition (APOL1; A431, 0.25 µM) of the same sequence?
**A.** The target mRNA inhibition was 61%.

**Q.** And the target mRNA inhibition (APOL1; A431, 1 µM)?
**A.** Its target mRNA inhibition is 87%.

**Q.** What about the target mRNA inhibition (APOL1; A431, 2 µM) of the same sequence?
**A.** The target mRNA inhibition was 91%.

**Q.** For “TTATATTTGATCCTCA (sugars kdddddkekekddddd, PS)”, which target mRNA inhibition (APOL1; A431, 2 µM) is on record?
**A.** Its target mRNA inhibition is 82%.

**Q.** Which results are given for “TTATATTTGATCCTCA (sugars kkdddddkekeddddd, PS)”?
**A.** target mRNA inhibition (APOL1; A431, 0.0156 µM): 7%; target mRNA inhibition (APOL1; A431, 0.0625 µM): 38%; target mRNA inhibition (APOL1; A431, 0.25 µM): 74%; target mRNA inhibition (APOL1; A431, 1 µM): 92%; target mRNA inhibition (APOL1; A431, 2 µM): 96%

**Q.** For “TTATATTTGATCCTCA (sugars kkkddddkekekdddd, PS)”, which target mRNA inhibition (APOL1; A431, 2 µM) is on record?
**A.** Its target mRNA inhibition is 92%.

**Q.** For “TTATGAAATTATTGGT (sugars kkddddekekeddddd, PS)”, which target mRNA inhibition (APOL1; A431, 2 µM) is on record?
**A.** Its target mRNA inhibition is 74%.

**Q.** How did the target mRNA inhibition (APOL1; A431, 2 µM) turn out when “TTATGAAATTATTGGT (sugars kkddddkekekddddd, PS)” was run?
**A.** Its target mRNA inhibition is 82%.

**Q.** “TTATGAAATTATTGGT (sugars kkddddkekekkdddd, PS)” was tested. Which target mRNA inhibition (APOL1; A431, 2 µM) did it give?
**A.** The target mRNA inhibition was 63%.

**Q.** How did the target mRNA inhibition (APOL1; A431, 2 µM) turn out when “TTATGAAATTATTGGT (sugars kkkddddkekekdddd, PS)” was run?
**A.** The target mRNA inhibition was 86%.

**Q.** Which results are given for TTATGGAATTGCAGAT (sugars k4 d9 k3, PS)?
**A.** target mRNA inhibition (APOL1; A431, 0.0625 µM): 38%; target mRNA inhibition (APOL1; A431, 0.25 µM): 67%; target mRNA inhibition (APOL1; A431, 1 µM): 86%

**Q.** With “TTATTCTCATGGTACA (sugars kkkddddkekekdddd, PS)” as the sequence, how does the target mRNA inhibition (APOL1; A431, 2 µM) read?
**A.** The target mRNA inhibition was 53%.

**Q.** Which target mRNA inhibition (APOL1; A431, 2 µM) does the source give for “TTCTATTAGAGGGCTA (sugars k2 d4 e3 k2 d5, PS)” here?
**A.** Its target mRNA inhibition is 87%.

**Q.** For “TTCTATTAGAGGGCTA (sugars k3 d4 k3 e1 d5, PS)”, which target mRNA inhibition (APOL1; A431, 2 µM) is on record?
**A.** Its target mRNA inhibition is 85%.

**Q.** For “TTCTATTAGAGGGCTA (sugars kekddddeekkddddd, PS)”, which target mRNA inhibition (APOL1; A431, 2 µM) is on record?
**A.** Its target mRNA inhibition is 94%.

**Q.** Which results are given for “TTCTATTAGAGGGCTA (sugars kkdddddkekeddddd, PS)”?
**A.** target mRNA inhibition (APOL1; A431, 0.0156 µM): 26%; target mRNA inhibition (APOL1; A431, 0.0625 µM): 56%; target mRNA inhibition (APOL1; A431, 0.25 µM): 81%; target mRNA inhibition (APOL1; A431, 1 µM): 92%; target mRNA inhibition (APOL1; A431, 2 µM): 94%

**Q.** “TTCTATTAGAGGGCTA (sugars kkkddddkdkdkdddd, PS)” was tested. Which target mRNA inhibition (APOL1; A431, 2 µM) did it give?
**A.** The target mRNA inhibition was 78%.

**Q.** “TTCTATTAGAGGGCTA (sugars kkkddddkekeddddd, PS)” was tested. Which target mRNA inhibition (APOL1; A431, 2 µM) did it give?
**A.** Its target mRNA inhibition is 91%.

**Q.** Which target mRNA inhibition (APOL1; A431, 2 µM) does the source give for “TTCTCATGGTACAGGA (sugars k2 d4 e3 k2 d5, PS)” here?
**A.** Its target mRNA inhibition is 86%.

**Q.** For “TTCTCATGGTACAGGA (sugars k2 d4 e4 k2 d4, PS)”, which target mRNA inhibition (APOL1; A431, 2 µM) is on record?
**A.** Its target mRNA inhibition is 80%.

**Q.** With “TTCTCATGGTACAGGA (sugars kkddddkdkdkddddd, PS)” as the sequence, how does the target mRNA inhibition (APOL1; A431, 2 µM) read?
**A.** The target mRNA inhibition was 89%.

**Q.** For TTCTTGATGTGGTGGG (sugars k4 d9 k3, PS), which target mRNA inhibition (APOL1; A431, 0.0625 µM) is on record?
**A.** Its target mRNA inhibition is 58%.

**Q.** And the target mRNA inhibition (APOL1; A431, 0.25 µM)?
**A.** Its target mRNA inhibition is 82%.

**Q.** What about the target mRNA inhibition (APOL1; A431, 1 µM) of the same sequence?
**A.** Its target mRNA inhibition is 91%.

**Q.** How did the target mRNA inhibition (APOL1; A431, 0.0625 µM) turn out when TTGGTTCAAAAGCAGC (sugars k4 d9 k3, PS) was run?
**A.** The target mRNA inhibition was 72%.

**Q.** What about the target mRNA inhibition (APOL1; A431, 0.25 µM) of the same sequence?
**A.** The target mRNA inhibition was 87%.

**Q.** What about the target mRNA inhibition (APOL1; A431, 1 µM) of the same sequence?
**A.** The target mRNA inhibition was 92%.

**Q.** For “TTGTAAGTGCAACCAA (sugars kkddddkdkdkddddd, PS)”, which target mRNA inhibition (APOL1; A431, 2 µM) is on record?
**A.** The target mRNA inhibition was 74%.

**Q.** “TTGTAAGTGCAACCAA (sugars kkddddkekekddddd, PS)” was tested. Which target mRNA inhibition (APOL1; A431, 2 µM) did it give?
**A.** The target mRNA inhibition was 69%.

**Q.** Which target mRNA inhibition (APOL1; A431, 0.0625 µM) does the source give for TTGTCTTGCAAGGTTG (sugars k4 d9 k3, PS) here?
**A.** Its target mRNA inhibition is 55%.

**Q.** What about the target mRNA inhibition (APOL1; A431, 0.25 µM) of the same sequence?
**A.** Its target mRNA inhibition is 69%.

**Q.** And the target mRNA inhibition (APOL1; A431, 1 µM)?
**A.** The target mRNA inhibition was 85%.

**Q.** Which target mRNA inhibition (APOL1; A431, 2 µM) does the source give for “TTTAAACTCAGGTGAC (sugars kkddddkekekkdddd, PS)” here?
**A.** The target mRNA inhibition was 16%.

**Q.** How did the target mRNA inhibition (APOL1; A431, 0.0625 µM) turn out when TTTTGTTGCACCCTTG (sugars k4 d9 k3, PS) was run?
**A.** Its target mRNA inhibition is 76%.

**Q.** And the target mRNA inhibition (APOL1; A431, 0.25 µM)?
**A.** Its target mRNA inhibition is 87%.

**Q.** What about the target mRNA inhibition (APOL1; A431, 1 µM) of the same sequence?
**A.** The target mRNA inhibition was 92%.
